# Measured values reported in US20260108546A1 (ELI LILLY AND COMPANY, priority 2024, published 2026).
# Structures can show the parent of a compound that is named as a salt.
# Target: T1, hGIP-R (Homo sapiens, UniProt P48546)
# T1 construct: expressed in transfected cells; host or cells: HEK-293 clonal cell lines
# T1 sequence (P48546 22-466): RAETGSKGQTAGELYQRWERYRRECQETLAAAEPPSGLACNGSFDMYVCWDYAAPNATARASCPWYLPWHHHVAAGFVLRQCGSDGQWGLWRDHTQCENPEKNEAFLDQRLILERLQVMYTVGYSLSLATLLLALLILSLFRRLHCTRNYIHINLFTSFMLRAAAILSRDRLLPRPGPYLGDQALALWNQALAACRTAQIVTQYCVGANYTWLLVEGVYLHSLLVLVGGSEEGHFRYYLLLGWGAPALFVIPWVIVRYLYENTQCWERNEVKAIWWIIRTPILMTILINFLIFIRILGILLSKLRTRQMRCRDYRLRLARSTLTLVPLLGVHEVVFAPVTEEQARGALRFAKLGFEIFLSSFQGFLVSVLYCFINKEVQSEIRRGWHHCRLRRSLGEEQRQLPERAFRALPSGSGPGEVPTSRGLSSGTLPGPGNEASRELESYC
# Experiment: Functional hGIP-R Assay (cAMP formation, HTRF)
# Format: cell-based
# Conditions: for Emax: cAMP efficacy, percent of maximal response to GIP(1-42)OH, 37° C., 0.1% bovine casein, arithmetic mean ± SEM; for EC50: cAMP potency, HEK-293 cells expressing hGIP-R, incubated at 37° C. in the presence of 0.1% bovine casein, geometric mean, read-out: Human GIP-R EC50, nM (SEM, n)
# Method: Functional activity was determined using CAMP formation in HEK-293 clonal cell lines expressing hGIP-R. hGIP-R receptor expressing cells were treated with compound (20 point concentration-response curve in DMSO, 2-fold Labcyte Echo direct dilution, 384 well plate Corning Cat #3570) in DMEM (Gibco Cat #31053) supplemented with 1× GlutaMAX™ (Gibco Cat #35050), 0.1% bovine casein (Sigma C4765-10ML), 250 μM IBMX (3-Isobutyl-1-methylxanthine, Acros Cat #228420010) and 20 mM HEPES (Gibco Cat #15630) in a 20 μL assay volume (final DMSO concentration was 1%). After a 30 min incubation at 37° C., the resulting increase in intracellular cAMP was quantitatively determined using the Revvity CAMP Dynamic 2 HTRF Assay Kit (62AM4PEJ). Briefly, cAMP levels within the cell were detected by adding the cAMP-d2 conjugate in cell lysis buffer (10 μL) followed by the antibody anti-cAMP-Eu^3+-Cryptate, also in cell lysis buffer (10 μL). The resulting competitive assay was incubated for at least 60 min at RT, then detected using a BMG Labtech PHERAstar FSX instrument with excitation at 320 nm and emission at 665 nm and 620 nm. PHERAstar units (emission at 665 nm/620 nm*10,000) are inversely proportional to the amount of cAMP present and were converted to nM cAMP per well using a CAMP standard curve. The amount of cAMP generated (nM) in each well was converted to a percent of the maximal response observed with human GIP (1-42) OH. A relative EC50 value and percent top (Emax) were derived by non-linear regression analysis using the percent maximal response vs. the concentration of compound added, fitted to a four-parameter logistic equation.
SMILES,Emax [%],EC50 [nM]
"Cc1nc(-c2cnc3nc(C4CC4)cn3c2)ccc1[C@H]1C[C@@]12CCN([C@H](Cc1cnn(C(F)F)c1)C(=O)NC(C)(C)Cn1nc(C(F)(F)F)cc1-c1ccc(C(C)(C)OP(=O)(O)O)nc1)C2=O [Example 197, 2-(5-(1-(2-((R)-2-((1R,3R)-1-(6-(2-Cyclopropylimidazo[1,2-a]pyrimidin-6-yl)-2-methylpyridin-3-yl)-4-oxo-5-azaspiro[2.4]heptan-5-yl)-3-(1-(difluoromethyl)-1H-pyrazol-4-yl)propanamido)-2-methylpropyl)-3-(trifluoromethyl)-1H-pyrazol-5-yl)pyridin-2-yl)propan-2-yl dihydrogen phosphate, ammonia salt]",119,0.66
"Cn1cc(-c2cc(C(F)(F)F)nn2CC(C)(C)NC(=O)[C@@H](Cc2cnn(C(F)F)c2)N2CC[C@@]3(C[C@@H]3c3ccc(-c4cnc5nn(CCO)cc5c4)cc3F)C2=O)cc(F)c1=O (single isomer, unassigned; isomer 1) [Example 107]",108 ± 0.709,36.2
"COc1cc2cc(-c3ccc([C@H]4C[C@@]45CCN([C@H](Cc4cnn(C(F)F)c4)C(=O)NC(C)(C)Cn4nc(C(F)(F)F)cc4-c4ccc(=O)n(C)c4)C5=O)cc3)cnc2nc1C (single isomer, unassigned; isomer 1) [Example 105]",8.43 ± 1.23,49.8
"Cc1cn2cc(-c3ccc([C@H]4C[C@@]45CCN([C@H](Cc4cnn(C(F)F)c4)C(=O)NC(C)(C)Cn4nc(C(F)(F)F)cc4-c4cnc(C6CC6)nc4)C5=O)cc3)cnc2n1 (single isomer, unassigned; isomer 1) [Example 101]",59.6 ± 0.0693,58.5
"Cn1cc2cc(-c3ccc([C@H]4C[C@@]45CCN([C@H](Cc4cnn(C(F)F)c4)C(=S)NC(C)(C)Cn4nc(C(F)(F)F)cc4-c4cc(F)c(=O)n(C)c4)C5=O)c(F)c3)cnc2n1 (single isomer, unassigned; isomer 1) [Example 118]",59.3 ± 1.52,4.02
"[2H]C([2H])([2H])n1cc(C[C@H](C(=O)NC(C)(C)Cn2nc(C(F)(F)F)cc2-c2cnc(C)nc2)N2CC[C@@]3(C[C@@H]3c3ccc(-c4cnc5nn(C)cc5c4)cc3Cl)C2=O)cn1 (single isomer, unassigned; isomer 1) [Example 114]",80.3 ± 0.191,1.79
"Cn1cc(C[C@@H](NC(=O)C2CC2c2ccc(-c3cnc4nn(C)cc4c3)s2)C(=O)NC(C)(C)Cn2nc(C(F)(F)F)cc2Br)cn1 (single isomer, unassigned; isomer 2) [Example 7]",99.7 ± 0.756,246
"Cc1nc(-c2ccc(C(C)(C)O)nc2)ccc1[C@H]1C[C@@]12CCN([C@H](Cc1cnn(C(F)F)c1)C(=O)NC(C)(C)Cn1nc(C(F)(F)F)cc1-c1ccn(C3CC3)c(=O)c1)C2=O [Example 171, (R)-N-(1-(5-(1-cyclopropyl-2-oxo-1,2-dihydropyridin-4-yl)-3-(trifluoromethyl)-1H-pyrazol-1-yl)-2-methylpropan-2-yl)-3-(1-(difluoromethyl)-1H-pyrazol-4-yl)-2-((1R,3R)-1-(6′-(2-hydroxypropan-2-yl)-6-methyl-[2,3′-bipyridin]-5-yl)-4-oxo-5-azaspiro[2.4]heptan-5-yl)propanamide]",25.1 ± 2.38,14.2
"CN1CC(n2cc3cc(-c4ccc([C@H]5C[C@@]56CCN([C@H](Cc5cnn(C(F)F)c5)C(=O)NC(C)(C)Cn5nc(C(F)(F)F)cc5-c5cc(F)c(=O)n(C)c5)C6=O)c(F)c4)cnc3n2)C1 (single isomer, unassigned; isomer 1) [Example 106]",77.3 ± 7.69,36.3
